Experimental data reported in article PMC11532403 (Signal Transduction and Targeted Therapy, 2024).
Values joined by “and” are separate entries in the source; they are usually repeats but may differ in a detail not shown here. Equal values may be shown once.

Test system: RET-altered solid tumors
Assay: Phase 1 trial: anti-tumor efficacy (RECIST 1.1)
Type: in vivo, human
Protocol: Radiologic tumor assessments were conducted by computed tomography (CT) or magnetic resonance imaging (MRI) of brain, chest, abdomen, and pelvis at baseline, 4 weeks for the first tumor assessment, then every 8 weeks (± 7 days) for 1 year, and every 12 weeks (± 7 days) thereafter. MTC patients were longitudinally monitored for serum calcitonin and carcinoembryonic antigen (CEA) levels.

[1] = All patients, 160 mg BID (n = 95)
[2] = All patients, 200 mg BID (n = 10)
[3] = All patients, all doses (n = 116)
[4] = Previously treated, 160 mg BID (n = 58)
[5] = Previously treated, 200 mg BID (n = 8)
[6] = Previously treated, all doses (n = 76)
[7] = RP2D 160 mg BID, MTC, all (n = 23)
[8] = RP2D 160 mg BID, NSCLC, all (n = 64)
[9] = RP2D 160 mg BID, PTC, all (n = 7)
[10] = RP2D, MTC, previously treated (n = 15)
[11] = RP2D, MTC, treatment-naïve (n = 8)
[12] = RP2D, NSCLC, previously treated (n = 36)
[13] = RP2D, NSCLC, treatment-naïve (n = 28)
[14] = RP2D, PTC, previously treated (n = 6)

COc1ccc(CN2C3CC2CN(c2ccc(-c4cc(N5CC(C)(O)C5)cn5ncc(C#N)c45)cn2)C3)cn1 [SY-5007, 6-(3-hydroxy-3-methylazetidin-1-yl)-4-(6-(6-((6-methoxypyridin-3-yl)methyl)-3,6-diazabicyclo[3.1.1]heptan-3-yl)pyridin-3-yl)pyrazolo[1,5-a]pyridine-3-carbonitrile]
Patients with target tumor shrinkage (111/116): 95.7%
Progressive disease (All patients, 20 mg QD to 120 mg BID cohorts): 0 (0.0) n (%)
DCR (95% CI) (All patients, 20 mg QD to 120 mg BID cohorts, 20 mg once daily): 100.0 (2.5–100.0) %
Median TTR (95% CI) (All patients, 20 mg QD to 120 mg BID cohorts, 20 mg twice daily): 6.73 (NE-NE) months
DCR (95% CI) (All patients, 20 mg QD to 120 mg BID cohorts, 40 mg twice daily): 100.0 (29.2–100.0) %
Median TTR (95% CI) (All patients, 20 mg QD to 120 mg BID cohorts, 120 mg twice daily): 8.37 (1.18-NE) months
DCR (95% CI) [1]: 94.7 (88.1–98.3) %
Median DoR (95% CI) [1]: 13.0 (12.8-NE) months
Median PFS (95% CI) [1]: 15.4 (13.8-NE) months
Median TTR (95% CI) [1]: 2.79 (2.75–4.63) months
ORR (95% CI) [1]: 58.9 (48.4–68.9) %
Partial response [1]: 56 (58.9) n (%)
Progressive disease [1]: 5 (5.3) n (%)
Stable disease [1]: 34 (35.8) n (%)
DCR (95% CI) [2]: 100.0 (69.2–100.0) %
Median TTR (95% CI) [2]: 1.14 (0.91-NE) months
ORR (95% CI) [2]: 60.0 (26.2–87.8) %
Partial response [2]: 6 (60.0) n (%)
Progressive disease [2]: 0 (0.0) n (%)
Stable disease [2]: 4 (40.0) n (%)
DCR (95% CI) [3]: 95.7 (90.2–98.6) %
Median DoR (95% CI) [3]: 19.9 months and 19.9 (12.8–NE) months
Median PFS (95% CI) [3]: 21.1 months and 21.1 (13.8–NE) months
Median TTR (95% CI) [3]: 2.82 (2.75–4.66) months
ORR (95% CI) [3]: 57.8 (48.2–66.9) %
Partial response [3]: 67 (57.8) n (%)
Progressive disease [3]: 5 (4.3) n (%)
Stable disease [3]: 44 (37.9) n (%)
Estimated 12-month PFS rate (MTC at RP2D): 85.2%
Estimated 6-month PFS rate (NSCLC at 160 mg BID): 89.6%
Estimated 12-month PFS rate (NSCLC at 160 mg BID): 67.5%
Estimated 12-month PFS rate (PTC at RP2D): 100.0%
Median PFS (95% CI) (Previously treated, 20 mg QD (n = 1)): 4.83 (NE-NE) months
Progressive disease (Previously treated, 20 mg QD to 120 mg BID cohorts): 0 (0.0) n (%)
DCR (95% CI) (Previously treated, 20 mg QD to 120 mg BID cohorts, 20 mg once daily): 100.0 (2.5–100.0) %
Median TTR (95% CI) (Previously treated, 20 mg QD to 120 mg BID cohorts, 20 mg twice daily): 6.73 (NE-NE) months
DCR (95% CI) (Previously treated, 20 mg QD to 120 mg BID cohorts, 40 mg twice daily): 100.0 (15.8–100.0) %
DCR (95% CI) (Previously treated, 20 mg QD to 120 mg BID cohorts, 80 mg twice daily): 100.0 (29.2–100.0) %
Median TTR (95% CI) (Previously treated, 20 mg QD to 120 mg BID cohorts, 120 mg twice daily): 8.37 (1.18-NE) months
DCR (95% CI) [4]: 94.8 (85.6–98.9) %
Median DoR (95% CI) [4]: 13.0 (9.23-NE) months
Median PFS (95% CI) [4]: 15.4 (13.8-NE) months
Median TTR (95% CI) [4]: 4.56 (2.75-NE) months
ORR (95% CI) [4]: 51.7 (38.2–65.0) %
Partial response [4]: 30 (51.7) n (%)
Progressive disease [4]: 3 (5.2) n (%)
Stable disease [4]: 25 (43.1) n (%)
DCR (95% CI) [5]: 100.0 (63.1–100.0) %
Median TTR (95% CI) [5]: 3.15 (0.91-NE) months
ORR (95% CI) [5]: 50.0 (15.7–84.3) %
Partial response [5]: 4 (50.0) n (%)
Progressive disease [5]: 0 (0.0) n (%)
Stable disease [5]: 4 (50.0) n (%)
DCR (95% CI) [6]: 96.1 (88.9–99.2) %
Median DoR (95% CI) [6]: 19.9 (12.8-NE) months
Median TTR (95% CI) [6]: 4.63 (2.75-NE) months
ORR (95% CI) [6]: 51.3 (39.6–63.0) %
Partial response [6]: 39 (51.3) n (%)
Progressive disease [6]: 3 (3.9) n (%)
Stable disease [6]: 34 (44.7) n (%)
Patients with progression or death (RET fusion-positive NSCLC at 160 mg BID): 26.6%
DCR (95% CI) [7]: 91.3 (72.0-98.9) %
Median TTR (95% CI) [7]: 4.66 (2.75-NE) months
ORR (95% CI) [7]: 52.2 (30.6-73.2) %
Partial response [7]: 12 (52.2) n (%)
Progressive disease [7]: 2 (8.7) n (%)
Stable disease [7]: 9 (39.1) n (%)
DCR (95% CI) [8]: 96.9 (89.2-99.6) %
Median DoR (95% CI) [8]: 13.0 months and 13.0 (9.26-NE) months
Median PFS (95% CI) [8]: 15.4 months and 15.4 (10.1-NE) months
Median TTR (95% CI) [8]: 2.75 (1.01-2.89) months
ORR (95% CI) [8]: 64.1 (51.1-75.7) %
Partial response [8]: 41 (64.1) n (%)
Progressive disease [8]: 2 (3.1) n (%)
Stable disease [8]: 21 (32.8) n (%)
DCR (95% CI) [9]: 100.0 (59.0-100.0) %
ORR (95% CI) [9]: 42.9 (9.9-81.6) %
Partial response [9]: 3 (42.9) n (%)
Progressive disease [9]: 0 (0.0) n (%)
Stable disease [9]: 4 (57.1) n (%)
DCR (95% CI) [10]: 100.0 (78.2-100.0) %
ORR (95% CI) [10]: 40.0 (16.3-67.7) %
Partial response [10]: 6 (40.0) n (%)
Progressive disease [10]: 0 (0.0) n (%)
Stable disease [10]: 9 (60.0) n (%)
DCR (95% CI) [11]: 75.0 (34.9-96.8) %
Median TTR (95% CI) [11]: 2.75 (0.85-NE) months
ORR (95% CI) [11]: 75.0 (34.9-96.8) %
Partial response [11]: 6 (75.0) n (%)
Progressive disease [11]: 2 (25.0) n (%)
Stable disease [11]: 0 (0.0) n (%)
DCR (95% CI) [12]: 94.4 (81.3-99.3) %
Median DoR (95% CI) [12]: 13.0 (9.20-NE) months
Median PFS (95% CI) [12]: 13.8 (10.1-NE) months
Median TTR (95% CI) [12]: 2.75 (0.98-NE) months
ORR (95% CI) [12]: 58.3 (40.8-74.5) %
Partial response [12]: 21 (58.3) n (%)
Progressive disease [12]: 2 (5.6) n (%)
Stable disease [12]: 13 (36.1) n (%)
DCR (95% CI) [13]: 100.0 (87.7-100.0) %
Median DoR (95% CI) [13]: 14.5 (9.26-NE) months
Median PFS (95% CI) [13]: 15.5 (9.23-NE) months
Median TTR (95% CI) [13]: 1.11 (0.91-3.15) months
ORR (95% CI) [13]: 71.4 (51.3-86.8) %
Partial response [13]: 20 (71.4) n (%)
Progressive disease [13]: 0 (0.0) n (%)
Stable disease [13]: 8 (28.6) n (%)
DCR (95% CI) [14]: 100.0 (54.1-100.0) %
ORR (95% CI) [14]: 50.0 (11.8-88.2) %
Partial response [14]: 3 (50.0) n (%)
Progressive disease [14]: 0 (0.0) n (%)
Stable disease [14]: 3 (50.0) n (%)
DCR (95% CI) (RP2D, PTC, treatment-naïve (n = 1)): 100.0 (2.5-100.0) %
